The test system of one data set is KM12. Description: SRB assay, colon cancer cell growth inhibition. It counts as cell-based. The note with it: Homo sapiens, 48 h. The method, then: (§1) A series of 4-phenyl-N-(thieno[2,3-b]pyrazin-3-yl)piperazine-1-carboxamides derivatives 7a–7i were tested for the colon cancer cell growth inhibition effect using the SRB assay (Table 2). […] Compounds 7a and 7b, containing chlorine at the C6 position of thieno[2,3-b]pyrazine ring, have weaker anticancer activity than its proton-containing derivatives 7c–7i. On the other hand, 7c has shown higher inhibition activity than 7d with methyl substituents at the C3 and C5 positions of the phenyl ring. […] Substitutions with one fluorine atom in the phenyl ring could not improve the inhibition effect of the compounds 7g–7h.
(§2) The HCT116, HCT8, KM12, HCT15, HT29, COLO-205, SW620 cell line was obtained from the National Cancer Institute (Material Transfer Agreement number: 2702–09). DLD1 cell line was obtained from the Korean cell line bank. Cells were cultured in complete Roswell Park Memorial Institute (RPMI) 1640 medium (Hyclone, South Logan, UT, USA) containing 10% fetal bovine serum (Hyclone, South Logan, UT, USA) in an atmosphere of 5% CO2 and 100% humidity at 37 °C. A small interfering RNA (siRNA) duplex targeting human c-Jun and FBXW7 (Genolution, Seoul, Korea) were introduced into cells using Lipofector-EXT (AptaBio, Yongin, Korea), according to the manufacturer’s instructions. As negative controls, cells were incubated with Lipofector-EXT (AptaBio, Yongin, KOR) and a negative siRNA (Genolution, Seoul, Korea).
(§3) Cells (100 μL containing 5000–10,000 cells/well) were incubated in 96 well microtiter plates. After 24 h, drugs were added (100 μL) to each well and the cultures were incubated for 48 h at 37 °C. The cells were then fixed in TCA (50 μL per well). The plates were incubated for a minimum of 1 h or a maximum of 3 h at 4 °C. The liquid was removed from the plate, which was then rinsed five times with water and allowed to dry at room temperature (rt) for approximately 12–24 h. The fixed cells were stained with 100 μL Sulforhodamine B (SRB) solution for 5 min at rt. After staining, the plate was washed three times with 1% glacial acetic acid and dried at rt for approximately 12–24 h. The SRB was then solubilized in 10 mM Tris buffer, and the absorbance was read at 515 nm. The effect of the drugs was expressed as GI50 (50% growth inhibition).
Background: In SRB staining, fixed cells bind dye roughly in proportion to their protein.

A further data set deals with Colo205. Description: SRB assay, colon cancer cell growth inhibition. To be noted: Homo sapiens, COLO 205, 48 h. It counts as cell-based. The procedure: as §1, §2, §3
For the next data set, the system named is HT29. Description: SRB assay, colon cancer cell growth inhibition. It counts as cell-based. The note with it: Homo sapiens, HT-29, 48 h. The method, then: as §1, §2, §3
Another data set relates to HCT116. Description: SRB assay, colon cancer cell growth inhibition. It counts as cell-based. To be noted: Homo sapiens, HCT-116. The procedure:
as §1, §2, §3

In another data set the test system is HCT15. Description: SRB assay, colon cancer cell growth inhibition. To be noted: Homo sapiens, HCT-15, 48 h. Type of data set: cell-based. The method, then: as §1, §2, §3
The test system of the next data set is HCT8. Description: SRB assay, colon cancer cell growth inhibition. To be noted: Homo sapiens, HCT-8, 48 h. Type of data set: cell-based. The procedure:
as §1, §2, §3

For another data set, the system named is SW620. Description: SRB assay, colon cancer cell growth inhibition. Type of data set: cell-based. To be noted: Homo sapiens, SW-620, 48 h. The procedure:
as §1, §2, §3

Data set [1] is described as follows: Pharmacokinetics in SD rats. To be noted: male, Sprague-Dawley, rat, plasma. It counts as in vivo. The method, then: Sprague–Dawley rats (adult males, 250–300 g) were fasted overnight, and the femoral vein (for iv administration of the compound) and jugular vein (for blood sampling) of each rat were cannulated with polyethylene tubing. The selected compounds dissolved in 30% polyethylene glycol (PEG) in saline were administered either intravenously or orally. At various time points after administration, blood samples (0.5 mL) were collected from the jugular vein, transferred to heparin-coated tubes, centrifuged to separate off the plasma. The plasma was stored at −80 °C until assayed. Compound concentrations in plasma were determined by LC/MS/MS analysis (API4000 mass spectrometer, Applied Biosystem, Waltham, MA, USA). Pharmacokinetic parameters were analyzed using the WinNonlin software program. The area under the curve (AUC) was calculated using the trapezoidal rule extrapolated to infinity. The terminal elimination half-life, systemic clearance, and volume of distribution at steady state were determined. The extent of absolute oral bioavailability (F) was estimated by comparing the AUC values after intravenous and oral administration of the compounds.

In a further data set the test system is FBXW7/c-Jun interaction. Description: Immunoprecipitation, ubiquitination and FBXW7/c-Jun interaction. It counts as cell-based, human. The note with it: HCT116 and DLD1; DGG200064 50 nM 18 h; MG132 10 μM 6 h. The text has this: To investigate whether the ubiquitination of c-Jun is suppressed through the inhibition of c-Jun and FBXW7 binding by DGG200064, c-Jun immunoprecipitation was done to observe protein–protein interaction (Figure 4). E3 ligase, such as FBXW7, binds the protein to the ubiquitin chain through covalent bonds and rapidly degrades the protein through 26S proteasome. When treated with MG132 as a proteasome inhibitor, the ubiquitination of c-Jun increased compared to both control HCT116 and DLD1 cells. In contrast, the c-Jun ubiquitination was inhibited by DGG200064. The binding between c-Jun and FBXW7 was reduced with DGG200064 treatment. The FBXW7 protein, also known as CDC4, is a component of the SCF complex ubiquitin ligase and is known as a modulator of several substrates including cyclin E, c-Myc, c-Jun, and Notch. To check the selectivity of DGG200064 towards FBXW7 substrates, the change of c-Jun, cyclin E, and c-Myc by DGG200064 was analyzed. […] Cyclin E immunoprecipitation was done to test whether the ubiquitination of cyclin E by FBXW7 is inhibited by DGG200064 in HCT116 (Figure S2b, Supplementary Materials). There were no changes in cyclin E ubiquitination with DGG200064 treatment.
To identified ubiquitination of c-Jun by DGG200064, HCT116 cells were treated with/without MG132 (10 μM) for 6h, DGG200064 (50 nM) for 18 h. The cell lysate was prepared using RIPA buffer for immunoprecipitation. Each lysate was mixed with antibodies (1 μg/mL) of c-Jun or MYC at 4 °C overnight in immunoprecipitation buffer containing 50 mM Tris-Cl,150 mM NaCl, 1 mM EDTA, 0.5% Triton X-100, pH 7.4, and reacted with 10 μL of protein A/G beads UltraLink Resin (50:50 resin: buffer slurry condition) (Peirce, #35133) for 2 h on RT for precipitation. After reaction and centrifugation at 3000 rpm for 3 min, the immunoprecipitated samples were washed with 500 μL of immunoprecipitation buffer by tapping and centrifuged. The washing was repeated five times before western blotting.

[2] abbreviates: quoted in docking discussion, cell line not stated there (values match HCT116).

Each structure is given as a SMILES string. Where a SMILES comes first, the peptide text is derived from it. The star is where a group is joined. Cbz = O=C(OCc1ccccc1)* A value given as a limit tells only on which side of the number the result lay.

As usually defined, the GI50 is the concentration giving 50% growth inhibition. Low values mean more potent growth inhibition, high ones less potent growth inhibition. For orientation: Cmax means the maximum level reached in the sampled fluid or tissue. The bioavailability is dose-corrected exposure relative to a reference, in per cent.

With `COc1cc(OC)cc(N2CCN(C(=O)Nc3nc4sc(Cl)cc4nc3OC)CC2)c1` [Compound 7a, N-(6-chloro-2-methoxythieno[2,3-b]pyrazin-3-yl)-4-(3,5dimethoxyphenyl)piperazine-1-carboxamide], the concentration for 50% growth inhibition (GI50) was 273 nM in the data set on KM12; 173 nM in the data set with Colo205; 408 nM in the data set with HT29; 344 nM in the data set with HCT116 (HCT116, SRB, 48 h); ≥ 100 nM in the data set on HCT116 (setting [2]); 484 nM in the data set with HCT15. Further, the concentration for 50% growth inhibition (GI50) in the data set on HCT8 amounted to 761 nM; with SW620 it was 427 nM.

Regarding `COc1nc2cc(Cl)sc2nc1NC(=O)N1CCN(c2cc(C)cc(C)c2)CC1` [Compound 7b, N-(6-chloro-2-methoxythieno[2,3-b]pyrazin-3-yl)-4-(3,5-dimethylphenyl)piperazine-1-carboxamide], the 50% growth inhibitory concentration (GI50) amounted to 244 nM in the data set with KM12; 900 nM with Colo205; 342 nM in the data set on HT29; 244 nM in the data set on HCT116 (HCT116, SRB, 48 h); 437 nM in the data set with HCT15; 900 nM in the data set with HCT8. In the data set on SW620, the GI50 is 273 nM.

Take `COc1nc2ccsc2nc1NC(=O)N1CCN(c2cc(C)cc(C)c2)CC1` [Compound 7d, 4-(3,5-Dimethylphenyl)-N-(2-methoxythieno[2,3-b]pyrazin-3-yl)piperazine-1 carboxamide]: the GI50 with KM12 came to 32 nM; with Colo205 it was 40 nM; in the data set with HT29 it was 26 nM; with HCT116 (HCT116, SRB, 48 h) it was 33 nM; with HCT15, 38 nM; with HCT8, 59 nM. In addition, in the data set on SW620, the GI50 turned out to be 38 nM.

Turning to `COc1nc2ccsc2nc1NC(=O)N1CCN(c2cc(F)cc(F)c2)CC1` [Compound 7e, 4-(3,5-Difluorophenyl)-N-(2-methoxythieno[2,3-b]pyrazin-3-yl)piperazine-1-carboxamide], the concentration for 50% growth inhibition (GI50) in the data set on KM12 is 426 nM; in the data set with Colo205, 287 nM; with HT29 it was 672 nM; with HCT116 (HCT116, SRB, 48 h) it was 307 nM; with HCT116 (setting [2]), ≥ 100 nM; in the data set with HCT15, 507 nM. Further, the GI50 in the data set with HCT8 amounted to 269 nM; in the data set on SW620, 288 nM.

As to `COc1cc(C)cc(N2CCN(C(=O)Nc3nc4sccc4nc3OC)CC2)c1` [Compound 7f, 4-(3-methoxy-5-methylphenyl)-N-(2-methoxythieno[2,3-b]pyrazin-3-yl)piperazine-1-carboxamide], in data set [1] (no unit, species or route stated in b12 (7c value equals SD rats PO of Table 3)), the Cmax stood at 195 ng/mL. Besides, the bioavailability in data set [1] (species and route not stated in b12 (7c value equals SD rats PO of Table 3), read-out: bioavailability (F)) was found to be 21.8%. The GI50 in the data set on KM12 amounted to 21 nM; with Colo205, 28 nM; with HT29, 21 nM; with HCT116 (HCT116, SRB, 48 h) it was 1.9 nM; in the data set on HCT15, 36 nM; in the data set on HCT8 it was 37 nM. In the data set with SW620, it took 34 nM to inhibit growth by half (GI50).

In the case of `COc1cc(F)cc(N2CCN(C(=O)Nc3nc4sccc4nc3OC)CC2)c1` [Compound 7g, 4-(3-Fluoro-5-methoxyphenyl)-N-(2-methoxythieno[2,3-b]pyrazin-3-yl)piperazine-1-carboxamide], the GI50 in the data set with KM12 stood at 22 nM; in the data set with Colo205, 14 nM; with HT29, 57 nM; in the data set with HCT116 (HCT116, SRB, 48 h), 45 nM; with HCT15, 30 nM; in the data set with HCT8, 39 nM. In addition, growth with SW620 was halved (GI50) at 29 nM.

As for `COc1nc2ccsc2nc1NC(=O)N1CCN(c2cc(C)cc(F)c2)CC1` [Compound 7h, 4-(3-Fluoro-5-methylphenyl)-N-(2-methoxythieno[2,3-b]pyrazin-3-yl)piperazine-1-carboxamide], the 50% growth inhibitory concentration (GI50) with KM12 amounted to 38 nM; with Colo205 it was 28 nM; in the data set on HT29 it was 29 nM; in the data set with HCT116 (HCT116, SRB, 48 h), 32 nM; with HCT15, 42 nM; in the data set on HCT8 it was 51 nM. In the data set on SW620, this molecule displayed a 50% growth inhibitory concentration (GI50) of 40 nM.

As for `CCOc1nc2ccsc2nc1NC(=O)N1CCN(c2cc(OC)cc(OC)c2)CC1` [Compound 7i, 4-(3,5-dimethoxyphenyl)-N-(2-ethoxythieno[2,3-b]pyrazin-3-yl)piperazine-1-carboxamide], the GI50 with KM12 was 74 nM; in the data set on Colo205, 35 nM; in the data set with HT29, 35 nM; in the data set with HCT116 (HCT116, SRB, 48 h), 71 nM; with HCT15 it was 68 nM; in the data set on HCT8 it was 58 nM. Further, it took 53 nM to inhibit growth in the data set with SW620 by half (GI50).

As for `CC(C)C[C@@H](C=O)NC(=O)[C@H](CC(C)C)NC(=O)[C@H](CC(C)C)NC(=O)OCc1ccccc1` [MG132, reference compound] (Cbz-Leu-Leu-Leu-aldehyde), in the data set on FBXW7/c-Jun interaction, the c-Jun ubiquitination result is reported as “increased”.
